# Laboratory results taken from paper PMC6130654 (Pharmaceutical Biology, 2016).
# Assays:
# [1] = test system: P-gp; experiment: P-gp expression levels in small intestine by western blot analysis; assay type: in vivo, ICR mice; settings: mouse small intestine, intragastric, seven days; for P-gp expression compared with negative control: normalized to Na+-K+-ATPase
# Description: Healthy male ICR mice (18-22 g of body weight) were purchased from SPF Animal Centre of […] Medical University ([…], China). […] The drugs were administrated intragastrically for seven consecutive days. Membrane proteins were harvested by […] Membrane and Plasma Protein Purification Kit ([…], Nanjing, China), and the protein concentrations were determined using KeyGEN BCA Protein Quantitation Assay kit ([…], Nanjing, China). An equal quantity of protein (48 μg) from membrane protein was resolved using 7.5% SDS-PAGE gel and subsequently transferred onto nitrocellulose membranes (Bio-Trace, Auckland, New Zealand). […] Antibodies were both purchased from Abcam (Cambridge, United Kingdom). The membranes were incubated with horseradish peroxidase-conjugated AffiniPure Goat Anti-Rabbit IgG (ZSGB-BIO, Beijing, China) for 1 h and signals were observed using SuperSignal West Pico (Thermo Scientific, Waltham, MA). Western blotting bands intensity was quantified by densitometric analysis using Image J version 2 × (NIH Image Software, […]).
# [2] = test system: ABC transporter coupling ATPase; experiment: ABC transporter-related ATPase activity assay on small intestine membrane proteins; assay type: in vivo, mice; settings: mouse small intestine, intragastric, seven days, p < 0.05
# Description: Healthy male ICR mice (18-22 g of body weight) were purchased from SPF Animal Centre of […] Medical University ([…], China). […] The drugs were administrated intragastrically for seven consecutive days.
# [3] = test system: Plasmodium berghei; set-up: method as in Wei et al. [2015]; settings: ref Wei et al. [2015]; cited from earlier work
# [4] = test system: MDR1 mRNA; experiment: MDR1 expression in small intestine determined by RT-qPCR; settings: mouse small intestine; intragastric, seven days; verapamil 40 mg/kg, ART-verapamil 1:1, ART-CHR all ratios, CHR alone 80 mg/kg; p < 0.01
# Description: All animals were housed in polycarbonate cages and acclimated in an environmentally controlled room (23 ± 2 °C, with adequate ventilation and a 12 h light/dark cycle) prior to use. All animals were provided with standard laboratory food and water before and during the experiments. […] The drugs were administrated intragastrically for seven consecutive days.
# The mice were euthanized by cervical vertebra dislocation. Small intestines were harvested and cleaned using normal saline at least three times. Total RNA was extracted from the mouse small intestine using E.Z.N.A.^TM Total RNA Kit (OMEGA Bio-Tek, Norcross, GA), in accordance with the instructions of the manufacturer. RNA concentrations were measured with a microplate spectrophotometer (Bio-RAD, Hercules, CA) at 260 nm. RNA quality was evaluated using electrophoresis in 1% agarose gels. Total RNA (3 μg) was reverse transcribed into first-strand complementary DNA (cDNA) using Thermo Scientific RevertAid First Strand cDNA Synthesis Kit (Thermo Scientific, Waltham, MA). Each cDNA sample (1 μL) was amplified with 12 μL Thermo Scientific Maxima SYBR Green qPCR Master Mix (2×). ROX Solution provided (Thermo Scientific, Waltham, MA) and 1 μmol of each primer. […]
# [5] = ref Wei et al. [2015]; cited from earlier work
# [6] = test system: rat CYP3A; settings: ref Wei et al. [2015]; cited from earlier work
SMILES,P-gp expression compared with negative control [1],"ATPase activity versus the vehicle ([2]; ART 40 mg/kg, verapamil 40 mg/kg)",effect of CHR on anti-malarial efficacy of ART [3],MDR1 mRNA expression compared with ART alone [4],"P-gp expression levels compared with ART alone ([1]; ART-verapamil (1:1), ART-CHR (1:0.1, 1:1, 1:2, 1:4), CHR alone, p < 0.05 and p < 0.01)",effect of CHR on rat plasma concentration of ART [5],manner of inhibition of rat CYP3A [6],"ATPase activity compared with ART alone ([2]; ART-CHR 1:4 (40:160 mg/kg), CHR alone 80 mg/kg)"
"C[C@@H]1CC[C@H]2[C@@H](C)C(=O)O[C@@H]3O[C@@]4(C)CC[C@@H]1[C@]32OO4 [ART, artemisinin, reference compound]",up-regulated,remarkably decreased,–,–,–,–,–,–
"COc1cc(-c2oc3cc(OC)c(OC)c(O)c3c(=O)c2OC)ccc1O [CHR, Chrysosplenetin]",No significant difference,–,significantly increased,reversed to normal levels,significantly decreased,significantly increased,uncompetitive,slight increase
